Measured values taken from patent publication US20140249139A1, “Quinazoline Derivatives” (NOVARTIS AG, priority 2011, published 2014).

Legend:
PI3K delta = target: T1, PI3K delta (Homo sapiens, UniProt O00329); experiment: Enzymatic PI3K delta isoform inhibition (lipid kinase activity, Kinase-Glo); assay type: biochemical; details: enzymatic assay
T1 construct: for the full-length p110-d subunit are generated and fused by overlapping PCR; His tag (C); made in house; host or cells: baculovirus BV1060; Tn5 (Trichoplusia ni) or TiniPro insect cells
T1 sequence (O00329 with tags, fused parts or gaps limits assumed, species assumed): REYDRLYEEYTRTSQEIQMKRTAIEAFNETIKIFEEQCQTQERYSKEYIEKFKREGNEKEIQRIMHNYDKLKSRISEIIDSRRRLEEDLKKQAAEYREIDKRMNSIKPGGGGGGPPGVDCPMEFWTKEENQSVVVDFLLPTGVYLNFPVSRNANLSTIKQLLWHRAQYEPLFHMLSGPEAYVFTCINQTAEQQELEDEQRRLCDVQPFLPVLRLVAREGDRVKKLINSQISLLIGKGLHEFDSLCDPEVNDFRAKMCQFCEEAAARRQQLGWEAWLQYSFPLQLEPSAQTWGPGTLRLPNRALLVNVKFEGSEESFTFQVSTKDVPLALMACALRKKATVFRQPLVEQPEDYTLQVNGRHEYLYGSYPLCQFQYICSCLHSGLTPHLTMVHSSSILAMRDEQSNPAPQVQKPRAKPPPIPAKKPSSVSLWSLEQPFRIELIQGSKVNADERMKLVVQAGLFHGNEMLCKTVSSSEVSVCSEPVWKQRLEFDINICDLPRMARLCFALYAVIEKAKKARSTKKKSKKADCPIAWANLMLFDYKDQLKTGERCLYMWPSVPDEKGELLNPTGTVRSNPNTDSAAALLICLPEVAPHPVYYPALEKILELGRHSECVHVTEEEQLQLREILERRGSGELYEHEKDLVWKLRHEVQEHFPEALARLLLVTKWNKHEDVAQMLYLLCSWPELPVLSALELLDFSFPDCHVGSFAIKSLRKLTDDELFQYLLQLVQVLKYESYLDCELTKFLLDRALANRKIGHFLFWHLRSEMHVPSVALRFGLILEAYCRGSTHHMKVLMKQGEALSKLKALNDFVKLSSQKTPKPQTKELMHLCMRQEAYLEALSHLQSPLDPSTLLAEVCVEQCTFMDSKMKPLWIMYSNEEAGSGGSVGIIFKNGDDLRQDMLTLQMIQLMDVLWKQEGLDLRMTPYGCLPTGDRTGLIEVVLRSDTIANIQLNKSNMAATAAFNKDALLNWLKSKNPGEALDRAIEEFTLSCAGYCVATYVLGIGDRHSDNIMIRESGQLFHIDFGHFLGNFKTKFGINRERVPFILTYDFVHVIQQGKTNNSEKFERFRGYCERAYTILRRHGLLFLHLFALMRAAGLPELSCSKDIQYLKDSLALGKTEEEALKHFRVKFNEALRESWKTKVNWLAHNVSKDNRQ
Experimental: (§1) The components of the assay are added per well as follows:
(§2) IC50 is determined by a four parameter curve fitting routine that comes along with “excel fit”.
(§3) Yet alternatively, for an ATP depletion assay, compounds of the formula I to be tested are dissolved in DMSO and directly distributed into a white 384-well plate at 0.5 μl per well. To start the reaction, 10 μl of 10 nM PI3 kinase and 5 μg/ml 1-alpha-phosphatidylinositol (PI) are added into each well followed by 10 μl of 2 μM ATP. The reaction is performed until approx 50% of the ATP is depleted, and then stopped by the addition of 20 μl of Kinase-Glo solution (Promega Corp., Madison, Wis., USA). The stopped reaction is incubated for 5 minutes and the remaining ATP is then detected via luminescence. IC50 values are then determined.

PI3K alpha = target: T2, PI3K alpha (Homo sapiens, UniProt P42336); experiment: Enzymatic PI3K alpha isoform inhibition (lipid kinase activity, Kinase-Glo); assay type: biochemical; details: enzymatic assay
T2 construct: for the p110-a subunit (with a deletion of the first 20 amino acids) are generated; His tag (C); made in house; host or cells: baculovirus BV1075; Tn5 (Trichoplusia ni) or TiniPro insect cells
T2 sequence (P42336 with tags, fused parts or gaps limits assumed, species assumed): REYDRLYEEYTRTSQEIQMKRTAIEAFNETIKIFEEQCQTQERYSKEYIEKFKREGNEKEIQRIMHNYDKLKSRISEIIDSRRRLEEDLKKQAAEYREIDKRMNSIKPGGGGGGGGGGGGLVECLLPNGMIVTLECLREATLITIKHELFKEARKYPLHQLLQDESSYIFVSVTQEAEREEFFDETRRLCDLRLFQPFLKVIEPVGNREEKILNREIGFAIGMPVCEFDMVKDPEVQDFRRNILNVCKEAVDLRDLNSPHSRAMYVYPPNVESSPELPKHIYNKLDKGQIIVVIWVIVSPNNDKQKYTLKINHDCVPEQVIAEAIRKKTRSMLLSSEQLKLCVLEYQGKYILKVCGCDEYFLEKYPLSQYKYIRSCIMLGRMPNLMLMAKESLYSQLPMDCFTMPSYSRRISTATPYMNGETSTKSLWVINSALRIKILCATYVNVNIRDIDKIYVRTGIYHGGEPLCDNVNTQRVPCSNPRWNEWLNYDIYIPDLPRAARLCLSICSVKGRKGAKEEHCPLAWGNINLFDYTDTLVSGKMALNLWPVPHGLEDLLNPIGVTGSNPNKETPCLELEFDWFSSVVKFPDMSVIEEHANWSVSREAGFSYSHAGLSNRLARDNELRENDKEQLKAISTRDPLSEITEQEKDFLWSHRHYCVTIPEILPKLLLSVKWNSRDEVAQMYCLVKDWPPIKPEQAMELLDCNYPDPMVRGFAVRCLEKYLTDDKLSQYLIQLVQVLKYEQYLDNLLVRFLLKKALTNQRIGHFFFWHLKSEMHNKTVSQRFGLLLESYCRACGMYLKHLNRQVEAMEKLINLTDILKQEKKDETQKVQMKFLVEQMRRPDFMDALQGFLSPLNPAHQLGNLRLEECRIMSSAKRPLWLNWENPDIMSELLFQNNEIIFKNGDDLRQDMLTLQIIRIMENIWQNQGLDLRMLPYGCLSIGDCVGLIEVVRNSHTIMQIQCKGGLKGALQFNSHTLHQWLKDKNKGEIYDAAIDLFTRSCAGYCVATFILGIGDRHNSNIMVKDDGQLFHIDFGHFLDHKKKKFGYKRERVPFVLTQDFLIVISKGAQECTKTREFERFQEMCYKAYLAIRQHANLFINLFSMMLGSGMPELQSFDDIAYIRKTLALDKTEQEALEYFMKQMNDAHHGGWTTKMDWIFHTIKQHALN
Experimental: as §1, §2, §3

SMILES	IC50 (PI3K delta)	IC50 (PI3K alpha)
CN1CCN(C(=O)c2cccc(-c3ncnc4ccc(-c5ccc(N(C)C)nc5)cc34)c2)CC1 [Example 17]	6.38 nM	352 nM
CCOc1ccc(-c2ccc3ncnc(-c4cccc(C(=O)N5CCN(C)C(C)(C)C5)c4)c3c2)cn1 [Example 27]	18.5 nM	404 nM
COc1ccc(-c2ccc3ncnc(-c4cncc(C(=O)N5CCN(C(C)=O)CC5)c4)c3c2)cn1 [Example 52]	7.5 nM	189 nM
CC(=O)N1CCN(C(=O)c2cncc(-c3ncnc4ccc(-c5cncc(C(F)(F)F)c5)cc34)c2)CC1 [Example 50, 1-(4-{5-[6-(5-Trifluoromethyl-pyridin-3-yl)-quinazolin-4-yl]-pyridine-3-carbonyl}-piperazin-1-yl)-ethanone]	10.5 nM	319 nM
COc1ncc(-c2ccc3ncnc(-c4cccc(C(=O)N5CCN(C(C)=O)CC5)c4)c3c2)cc1F [Example 3]	< 3 nM	62 nM
COc1ncc(-c2ccc3ncnc(-c4cncc(C(=O)N5CCN(C)C(C)(C)C5)c4)c3c2)cc1F [Example 73]	< 3 nM	60.5 nM
COc1ccc(-c2ccc3ncnc(-c4cncc(C(=O)N5CCNCC(F)(F)C5)c4)c3c2)cc1C(F)(F)F [Example 83, (6,6-Difluoro-[1,4]diazepan-1-yl)-{5-[6-(4-methoxy-3-trifluoromethyl-phenyl)-quinazolin-4-yl]-pyridin-3-yl}-methanone]	21 nM	904 nM
CN1CCN(C(=O)c2cccc(-c3ncnc4ccc(-c5ccc(S(N)(=O)=O)c(C(F)(F)F)c5)cc34)c2)CC1 [Example 46]	23.5 nM	5300 nM
COc1ncc(-c2ccc3ncnc(-c4cncc(C(=O)N5CCN(C)CC5)c4)c3c2)cc1C#N [Example 56]	11 nM	542 nM
COc1ncc(-c2ccc3ncnc(-c4cccc(C(=O)N5CCN(C)C(C)(C)C5)c4)c3c2)cn1 [Example 26]	17.8 nM	614 nM
COc1ccc(-c2ccc3ncnc(-c4cncc(C(=O)N5CCCN(C)CC5)c4)c3c2)cn1 [Example 76, {5-[6-(6-Methoxy-pyridin-3-yl)-quinazolin-4-yl]-pyridine-3-yl}-(4-methyl-[1,4]-diazepan-1-yl)-methanone]	23.5 nM	578 nM
COc1ncc(-c2ccc3ncnc(-c4cccc(C(=O)N5CCOCC5)c4)c3c2)cc1C#N [Example 30]	6.67 nM	387 nM
COc1ccc(-c2ccc3ncnc(-c4cccc(C(=O)N5CCN(C(C)=O)C(C)(C)C5)c4)c3c2)cn1 [Example 36, 1-(4-{3-[6-(6-Methoxy-pyridin-3-yl)-quinazolin-4-yl]-benzoyl}-2,2-dimethyl-piperazin-1-yl)-ethanone]	4.5 nM	217 nM
CCOc1ccc(-c2ccc3ncnc(-c4cccc(C(=O)N5CCN(C)CC5)c4)c3c2)cn1 [Example 16]	12.5 nM	695 nM
COc1ncc(-c2ccc3ncnc(-c4cncc(C(=O)N5CCN(C)CC5)c4)c3c2)cc1F [Example 55]	9.25 nM	193 nM
CC1(C)CN(C(=O)c2cncc(-c3ncnc4ccc(-c5cncc(S(C)(=O)=O)c5)cc34)c2)CCO1 [Example 64]	11 nM	583 nM
CN1CCN(C(=O)c2cccc(-c3ncnc4ccc(-c5cncc(S(C)(=O)=O)c5)cc34)c2)CC1 [Example 24]	15 nM	400 nM
CC(=O)N1CCN(C(=O)c2cccc(-c3ncnc4ccc(-c5cnc(N)nc5)cc34)c2)CC1 [Example 8]	9.5 nM	268 nM
COc1ncc(-c2ccc3ncnc(-c4cncc(C(=O)N5CCN(C)CC5)c4)c3c2)cn1 [Example 59]	31.5 nM	1710 nM
CCOc1ncc(-c2ccc3ncnc(-c4cccc(C(=O)N5CCN(C)CC5)c4)c3c2)cc1C(F)(F)F [Example 42, {3-[6-(6-Ethoxy-5-trifluoromethyl-pyridin-3-yl)-quinazolin-4-yl]-phenyl}-(4-methyl-piperazin-1-yl)-methanone]	6 nM	152 nM
COc1ncc(-c2ccc3ncnc(-c4cccc(C(=O)N5CCOC(C)(C)C5)c4)c3c2)cn1 [Example 33]	12 nM	639 nM
COc1ccc(-c2ccc3ncnc(-c4cncc(C(=O)N5CCNC(C)(C)C5)c4)c3c2)cn1 [Example 79, (3,3-Dimethyl-piperazin-1-yl)-{5-[6-(6-methoxy-pyridin-3-yl)-quinazolin-4-yl]-pyridin-3-yl}-methanone]	10 nM	360 nM
CN1CCN(C(=O)c2cccc(-c3ncnc4ccc(-c5ccc(OC(F)F)nc5)cc34)c2)CC1 [Example 13]	34 nM	1330 nM
COc1ncc(-c2ccc3ncnc(-c4cncc(C(=O)N5CCN(C(C)=O)CC5)c4)c3c2)cc1F [Example 51]	3.5 nM	118 nM
COc1ncc(-c2ccc3ncnc(-c4cncc(C(=O)N5CCOCC5)c4)c3c2)cc1C#N [Example 69]	8 nM	880 nM
CC(=O)N1CCN(C(=O)c2cccc(-c3ncnc4ccc(-c5cc(C#N)c(N)c(C(F)(F)F)c5)cc34)c2)CC1 [Example 10]	27 nM	> 9100 nM
COc1ncc(-c2ccc3ncnc(-c4cccc(C(=O)N5CCOC(C)(C)C5)c4)c3c2)cc1C#N [Example 31]	6 nM	631 nM

Other lines, results leading:

IC50 (PI3K delta)	IC50 (PI3K alpha)	SMILES
8 nM	2120 nM	COc1ncc(-c2ccc3ncnc(-c4cc(C(=O)N5CCN(C(C)=O)CC5)cc(C(F)(F)F)c4)c3c2)cc1C#N [Example 103, 5-{4-[3-(4-Acetyl-piperazine-1-carbonyl)-5-trifluoromethyl-phenyl]-quinazolin-6-yl}-2-methoxy-nicotinonitrile]
49 nM	2320 nM	COc1ncc(-c2ccc3ncnc(-c4ccnc(C(=O)N5CCN(C(C)=O)CC5)c4)c3c2)cn1 [Example 112, 1-(4-{4-[6-(2-Methoxy-pyrimidin-5-yl)-quinazolin-4-yl]-pyridine-2-carbonyl}-piperazin-1-yl)-ethanone]
18 nM	979 nM	COc1ncc(-c2ccc3ncnc(-c4ccnc(C(=O)N5CCN(C(C)=O)CC5)c4)c3c2)cc1C#N [Example 113, 5-{4-[2-(4-Acetyl-piperazine-1-carbonyl)-pyridin-4-yl]-quinazolin-6-yl}-2-methoxy-nicotinonitrile]
4.5 nM	237 nM	COc1ccc(-c2ccc3ncnc(-c4cccc(C(=O)N5CCN(C)C[C@@H]5C)c4)c3c2)cn1 [Example 99, ((S)-2,4-Dimethyl-piperazin-1-yl)-{3-[6-(6-methoxy-pyridin-3-yl)-quinazolin-4-yl]-phenyl}-methanone]
3.5 nM	102 nM	COc1ccc(-c2ccc3ncnc(-c4cccc(C(=O)N5CCNC[C@@H]5C)c4)c3c2)cn1 [Example 98, {3-[6-(6-Methoxy-pyridin-3-yl)-quinazolin-4-yl]-phenyl}-((S)-2-methyl-piperazin-1-yl)-methanone]
2.67 nM	100 nM	COc1ccc(-c2ccc3ncnc(-c4cccc(C(=O)N5CCNC(C)(C)C5)c4)c3c2)cn1 [Example 88, (3,3-Dimethyl-piperazin-1-yl)-{3-[6-(6-methoxy-pyridin-3-yl)-quinazolin-4-yl]-phenyl}-methanone]
7 nM	793 nM	COc1ccc(-c2ccc3ncnc(-c4cncc(C(=O)N5C[C@@H]6C[C@H]5CN6)c4)c3c2)cc1C(F)(F)F [Example 85, (1S,4S)-2,5-Diaza-bicyclo[2.2.1]hept-2-yl-{5-[6-(4-methoxy-3-trifluoromethyl-phenyl)-quinazolin-4-yl]-pyridin-3-yl}-methanone]
3 nM	71 nM	COc1ncc(-c2ccc3ncnc(-c4ccnc(C(=O)N5CCN(C(C)=O)CC5)c4)c3c2)cc1C(F)(F)F [Example 114, 1-(4-{4-[6-(6-Methoxy-5-trifluoromethyl-pyridin-3-yl)-quinazolin-4-yl]-pyridine-2-carbonyl}-piperazin-1-yl)-ethanone]
7 nM	158 nM	COc1ccc(-c2ccc3ncnc(-c4cc(C)cc(C(=O)N5CCN(C(C)=O)CC5)c4)c3c2)cn1 [Example 108, 1-(4-{3-[6-(6-Methoxy-pyridin-3-yl)-quinazolin-4-yl]-5-methyl-benzoyl}-piperazin-1-yl)-ethanone]
11 nM	770 nM	COc1ncc(-c2ccc3ncnc(-c4ccc(C)c(C(=O)N5CCN(C(C)=O)CC5)c4)c3c2)cn1 [Example 102, 1-(4-{5-[6-(2-Methoxy-pyrimidin-5-yl)-quinazolin-4-yl]-2-methyl-benzoyl}-piperazin-1-yl)-ethanone]
9.5 nM	558 nM	COc1ccc(-c2ccc3ncnc(-c4cncc(C(=O)N5CCNC[C@@H]5C)c4)c3c2)cc1C(F)(F)F [Example 84, {5-[6-(4-Methoxy-3-trifluoromethyl-phenyl)-quinazolin-4-yl]-pyridin-3-yl}-((S)-2-methyl-piperazin-1-yl)-methanone]
5 nM	188 nM	COc1ccc(-c2ccc3ncnc(-c4ccc(C)c(C(=O)N5CCN(C(C)=O)CC5)c4)c3c2)cn1 [Example 100, 1-(4-{5-[6-(6-Methoxy-pyridin-3-yl)-quinazolin-4-yl]-2-methyl-benzoyl}-piperazin-1-yl)-ethanone]
